Measurements: patent publication US20210378240A1, “OXETANYLPHENOXYQUINOLINES AND ANALOGUES” (Bayer Aktiengesellschaft, priority 2018, published 2021)

Method: In table 1, the logP values were determined in accordance with EEC Directive 79/831 Annex V.A8 by HPLC (High Performance Liquid Chromatography) on a reversed-phase column (C 18), using the method to described below:
temperature: 40° C.; mobile phases: 0.1% aqueous formic acid and acetonitrile; linear gradient from 10% acetonitrile to 95% acetonitrile;
Calibration was carried out using unbranched alkan-2-ones (comprising 3 to 16 carbon atoms) with known logP values (determination of the logP values by the retention times using linear interpolation between two successive alkanones). lambda-max-values were determined using UV-spectra from 200 nm to 400 nm and the peak values of the chromatographic signals.

Point of comparison: Cc1nc2c(F)c(F)ccc2cc1Nc1cccc(F)c1OC1COC1 [I.15, 7,8-difluoro-N-[3-fluoro-2-(oxetan-3-yloxy)phenyl]-2-methylquinolin-3-amine], chromatographic logP 3.28. Against it:
- Cc1nc2c(F)c(F)ccc2cc1Cc1ccccc1Br [3-(2-bromobenzyl)-7,8-difluoro-2-methylquinoline] — higher, 4.26
- O=[N+]([O-])c1cccc(F)c1OC1COC1 [3-(2-fluoro-6-nitrophenoxy)oxetane] — lower, 2
- Nc1cccc(F)c1OC1COC1 [3-fluoro-2-(oxetan-3-yloxy)-aniline, 3-fluoro-2-(oxetan-3-yloxy)aniline] — lower, 1.32
- Cc1nc2c(F)c(F)ccc2cc1Oc1ccccc1C1OCC1(C)C (centres unmarked) [I.01, 3-[2-(3,3-dimethyloxetan-2-yl)phenoxy]-7,8-difluoro-2-methyl-quinoline] — higher, 4.44
- Cc1nc2c(F)c(F)ccc2cc1Oc1ccccc1C1COC1 [I.02, 7,8-difluoro-2-methyl-3-[2-(oxetan-3-yl)phenoxy]quinoline] — within 0.2 log units, 3.33
- Cc1nc2c(F)c(F)ccc2cc1Oc1ccccc1N1CC2(COC2)C1 [I.03, 7,8-difluoro-2-methyl-3-[2-(2-oxa-6-azaspiro[3.3]heptan-6-yl)phenoxy]quinoline] — higher, 3.48
- Cc1nc2c(F)c(F)ccc2cc1Cc1ccccc1C1(C)COC1 [I.04, 7,8-difluoro-2-methyl-3-[2-(3-methyloxetan-3-yl)benzyl]quinoline] — within 0.2 log units, 3.47
- Cc1nc2c(F)c(F)ccc2cc1Nc1cccc(F)c1CN1CC(F)(F)C1 [I.10, N-{2-[(3,3-difluoroazetidin-1-yl)methyl]-3-fluorophenyl}-7,8-difluoro-2-methylquinolin-3-amine] — higher, 4.33
- Cc1nc2c(F)c(F)ccc2cc1Cc1ccccc1C#CC1COC1 [I.14, 7,8-difluoro-2-methyl-3-[2-(oxetan-3-ylethynyl)benzyl]quinoline] — higher, 3.66
- Cc1nc2c(F)c(F)ccc2cc1Oc1ccccc1C(O)C(C)(C)CO (centres unmarked) [IIa.01, 1-{2-[(7,8-difluoro-2-methylquinolin-3-yl)oxy]phenyl}-2,2-dimethylpropane-1,3-diol] — lower, 2.96
- Cc1nc2c(F)c(F)ccc2cc1Oc1cccc(I)c1C(O)C(C)(C)CO (centres unmarked) [IIa.02, 1-{2-[(7,8-difluoro-2-methylquinolin-3-yl)oxy]-6-iodophenyl}-2,2-dimethylpropane-1,3-diol] — higher, 3.57
- O=Cc1ccccc1Nc1cnc2c(F)cccc2c1 [IV.01, 2-[(8-fluoroquinolin-3-yl)amino]benzaldehyde] — lower, 2.88
- O=Cc1c(F)cccc1Oc1cnc2ccccc2c1 [IV.02, 2-fluoro-6-(quinolin-3-yloxy)benzaldehyde] — lower, 2.43
- Cc1nc2ccccc2cc1Oc1cccc(F)c1C=O [IV.03, 2-fluoro-6-[(2-methylquinolin-3-yl)oxy]benzaldehyde] — lower, 2.32
- Cc1nc2c(F)c(F)ccc2cc1Oc1ccccc1C=O [IV.04, 2-[(7,8-difluoro-2-methylquinolin-3-yl)oxy]benzaldehyde] — within 0.2 log units, 3.21
- Cc1nc2c(F)c(F)ccc2cc1Oc1cccc(F)c1C=O [IV.05, 2-[(7,8-difluoro-2-methylquinolin-3-yl)oxy]-6-fluorobenzaldehyde] — within 0.2 log units, 3.1
- Fc1cccc(Br)c1CN1CC(F)(F)C1 [IX_C, 1-(2-bromo-6-fluorobenzyl)-3,3-difluoroazetidine] — lower, 1.89
- CC1(c2ccccc2CBr)COC1 [XIII.01, 3-[2-(bromomethyl)phenyl]-3-methyloxetane] — lower, 2.73
- CC1(c2ccccc2CO)COC1 [XIV.01, [2-(3-methyloxetan-3-yl)phenyl]methanol] — lower, 1.3
